Series [1] can be described thus: Selectivity index, ratio of CC50 for African green monkey Vero cells to IC50 for chloroquine-resistant Plasmodium falciparum K1 infected in human erythrocytes. The class given is toxicity, cell-based. As to conditions: read-out: Ratio CC50/IC50.
Series [2] relates to Plasmodium falciparum. In words: Antiplasmodial activity against chloroquine-sensitive Plasmodium falciparum 3D7 infected in human erythrocytes after 72 hrs by SYBR Green 1 staining based fluorescence assay. It counts as functional, organism-based. As to conditions: 3D7, 72 h.
A short description of series [3]: Selectivity index, ratio of CC50 for African green monkey Vero cells to IC50 for chloroquine-sensitive Plasmodium falciparum 3D7 infected in human erythrocytes. The class given is toxicity, cell-based. As to conditions: read-out: Ratio CC50/IC50.
The nature of series [4]: Cytotoxicity against African green monkey Vero cells after 3 days by resazurin dye based fluorescence assay. It counts as cell-based. Particulars: chlorocebus sabaeus. (The colour change of resazurin is a common sign of viable cells or microbes.)
In series [5] the test system is Plasmodium falciparum. Briefly: Antiplasmodial activity against chloroquine-resistant Plasmodium falciparum K1 infected in human erythrocytes after 72 hrs by SYBR Green 1 staining based fluorescence assay. It counts as functional, organism-based. As to conditions: K1, 72 h.

Bounds are passed on as bounds.

As usually defined, the IC50 is the point on the concentration scale where inhibition reaches its midpoint. For orientation: CC50 means the concentration that lowers cell viability or growth by half. Turning to `CC(=O)C[C@H]1O[C@@H](On2cc(CN3C(=O)/C(=N\Nc4ccc(C#N)cc4)c4ccccc43)nn2)[C@H](OC(C)=O)[C@@H](OC(C)=O)[C@H]1OC(C)=O`, the selectivity ratio in series [1] amounted to 17.6; in series [3] it was 20.6. In addition, the results for the IC50 in the series on Plasmodium falciparum [2] and in the series with Plasmodium falciparum [5] were 3.67 µM and 4.28 µM, respectively. Further, in series [4], half-maximal cytotoxicity (CC50 at 72 h) was put at 75.5 µM.
`CC1(C)O[C@H]2O[C@H](Cn3cc(CN4C(=O)/C(=N\Nc5ccccc5)c5ccccc54)nn3)[C@H](O)[C@H]2O1`: the selectivity ratio in series [1] and in series [3] was 17.6 each time. The IC50 came out at 4.67 µM with Plasmodium falciparum [2] and 4.66 µM in the series on Plasmodium falciparum [5]. Also, in series [4], the cytotoxic concentration (CC50) at 72 h was found to be 82.1 µM.
For the compound `CC(=O)C[C@H]1O[C@@H](On2cc(CN3C(=O)/C(=N\Nc4ccc(F)cc4)c4ccccc43)nn2)[C@H](OC(C)=O)[C@@H](OC(C)=O)[C@@H]1OC(C)=O`, the selectivity ratio in series [1] was 18.1; in series [3], 30.5. In addition, the IC50 in the series with Plasmodium falciparum [2] amounted to 2.25 µM; in the series on Plasmodium falciparum [5], 3.8 µM. Moreover, in series [4], the CC50 at 72 h came out at 68.7 µM.
Regarding `CC1(C)O[C@H]2[C@@H](O1)[C@@H](Cn1cc(CN3C(=O)/C(=N\Nc4ccc(C#N)cc4)c4ccccc43)nn1)O[C@@H]1OC(C)(C)O[C@@H]12`, the IC50 came out at 3.59 µM with Plasmodium falciparum [2] and 2.77 µM with Plasmodium falciparum [5]. For the same compound, the selectivity ratio in series [3] came out at 34.9. The compound also registered a CC50 at 72 h in series [4] of 126 µM.
For `N#Cc1ccc(N/N=C2\C(=O)N(Cc3cn(O[C@@H]4O[C@H](CO)[C@@H](O)[C@H](O)[C@H]4O)nn3)c3ccccc32)cc1`, the IC50 amounted to 7.78 µM in the series on Plasmodium falciparum [2] and 7.01 µM in the series on Plasmodium falciparum [5].
With `CC(=O)C[C@H]1O[C@@H](On2cc(CN3C(=O)/C(=N\Nc4cccc(Cl)c4)c4ccccc43)nn2)[C@H](OC(C)=O)[C@@H](OC(C)=O)[C@H]1OC(C)=O`, the selectivity ratio was determined as 45.5 in series [1] and 35.6 in series [3]. In addition, the results for the IC50 with Plasmodium falciparum [2] and with Plasmodium falciparum [5] were 2.47 µM and 1.93 µM, respectively. In addition, in series [4], half-maximal cytotoxicity (CC50 at 72 h) was put at 87.9 µM.
In the case of `CC(=O)C[C@H]1O[C@@H](On2cc(CN3C(=O)C(=O)c4ccccc43)nn2)[C@H](OC(C)=O)[C@@H](OC(C)=O)[C@H]1OC(C)=O`, the concentration for half-maximal inhibition (IC50) amounted to 8.4 µM in the series on Plasmodium falciparum [2] and 8.07 µM with Plasmodium falciparum [5].
As to `COc1ccc(N/N=C2\C(=O)N(Cc3cn(O[C@@H]4O[C@H](CC(C)=O)[C@@H](OC(C)=O)[C@H](OC(C)=O)[C@H]4OC(C)=O)nn3)c3ccccc32)cc1`, the selectivity ratio in series [1] came out at 23.1; in series [3], 31.2. The IC50 was 3.05 µM in the series on Plasmodium falciparum [2] and 4.13 µM with Plasmodium falciparum [5]. In series [4], it took 95.3 µM to reach half-maximal cytotoxicity (CC50 at 72 h).
With `CC1(C)O[C@H]2[C@@H](O1)[C@@H](Cn1cc(CN3C(=O)C(=O)c4ccccc43)nn1)O[C@@H]1OC(C)(C)O[C@@H]12`, the IC50 in the series on Plasmodium falciparum [2] was 8.41 µM; with Plasmodium falciparum [5], 7.51 µM.
As to `CC(=O)C[C@H]1O[C@@H](On2cc(CN3C(=O)/C(=N\Nc4ccccc4)c4ccccc43)nn2)[C@H](OC(C)=O)[C@@H](OC(C)=O)[C@H]1OC(C)=O`, the selectivity ratio in series [1] is 15.8; in series [3], 18.6. Besides, the IC50 was determined as 3.5 µM with Plasmodium falciparum [2] and 4.13 µM in the series with Plasmodium falciparum [5]. The compound also had a CC50 at 72 h in series [4] of 65.2 µM.
On to `O=C1/C(=N\Nc2ccc(Br)cc2)c2ccccc2N1Cc1cn(O[C@@H]2O[C@H](CO)[C@@H](O)[C@H](O)[C@H]2O)nn1`, for which the IC50 with Plasmodium falciparum [2] came to 9.34 µM; in the series with Plasmodium falciparum [5], 7.95 µM.
With `CC1(C)O[C@H]2[C@@H](O1)[C@@H](Cn1cc(CN3C(=O)/C(=N\Nc4ccc(Br)cc4)c4ccccc43)nn1)O[C@@H]1OC(C)(C)O[C@@H]12`, the selectivity ratio in series [1] came to 73.9; in series [3], 60.7. The IC50 in the series with Plasmodium falciparum [2] is 1.96 µM; in the series on Plasmodium falciparum [5], 1.61 µM. The compound further displayed a half-maximal cytotoxic concentration (CC50) at 72 h in series [4] of 119 µM.
With `O=C1/C(=N\Nc2ccc(F)cc2)c2ccccc2N1Cc1cn(O[C@@H]2O[C@H](CO)[C@@H](O)[C@H](O)[C@H]2O)nn1`, the IC50 in the series with Plasmodium falciparum [2] was found to be 8 µM; in the series with Plasmodium falciparum [5] it was 8.53 µM.
For the compound `CC(=O)C[C@H]1O[C@@H](On2cc(CN3C(=O)/C(=N\Nc4ccccc4)c4ccccc43)nn2)[C@H](OC(C)=O)[C@@H](OC(C)=O)[C@@H]1OC(C)=O`, the selectivity ratio came out at 15.1 in series [1] and 28.9 in series [3]. Moreover, the IC50 in the series on Plasmodium falciparum [2] was 3.73 µM; in the series on Plasmodium falciparum [5], 7.11 µM. For the same compound, the CC50 at 72 h in series [4] was 108 µM.
For `COc1ccc(N/N=C2\C(=O)N(Cc3cn(O[C@@H]4O[C@H](CC(C)=O)[C@H](OC(C)=O)[C@H](OC(C)=O)[C@H]4OC(C)=O)nn3)c3ccccc32)cc1`, in that order: 20, 49.2, 1.27 µM, 3.12 µM and 62.5 µM.
For `CC1(C)O[C@H]2O[C@H](Cn3cc(CN4C(=O)/C(=N\Nc5ccc(Br)cc5)c5ccccc54)nn3)[C@H](O)[C@H]2O1`, in that order: 20.7, 18, 4.05 µM, 3.52 µM and 72.9 µM.
For `CC1(C)O[C@H]2[C@@H](O1)[C@@H](Cn1cc(CN3C(=O)/C(=N\Nc4ccc(F)cc4)c4ccccc43)nn1)O[C@@H]1OC(C)(C)O[C@@H]12`, in that order: 46.4, 39.9, 3.07 µM, 2.64 µM and 122 µM.
For the compound `CC(=O)C[C@H]1O[C@@H](On2cc(CN3C(=O)/C(=N\Nc4ccc(F)cc4)c4ccccc43)nn2)[C@H](OC(C)=O)[C@@H](OC(C)=O)[C@H]1OC(C)=O`, the selectivity ratio came to 26.2 in series [1] and 32.2 in series [3]. For the same compound, the half-maximal inhibitory concentration (IC50) in the series on Plasmodium falciparum [2] was 2.44 µM; in the series on Plasmodium falciparum [5], 3 µM. The compound also registered a CC50 at 72 h in series [4] of 78.6 µM.
For `CC(=O)C[C@H]1O[C@@H](On2cc(CN3C(=O)/C(=N\Nc4cccc(Cl)c4)c4ccccc43)nn2)[C@H](OC(C)=O)[C@@H](OC(C)=O)[C@@H]1OC(C)=O`, in that order: 13.4, 29.4, 3.96 µM, 8.67 µM and 117 µM.
As for `CC1(C)O[C@H]2O[C@H](Cn3cc(CN4C(=O)C(=O)c5ccccc54)nn3)[C@H](O)[C@H]2O1`, the selectivity ratio is greater than 58.8 in series [1] and greater than 46.2 in series [3]. For the same compound, the IC50 was 4.33 µM with Plasmodium falciparum [2] and 3.4 µM in the series on Plasmodium falciparum [5]. The compound further yielded a 50% cytotoxic concentration (CC50) at 72 h in series [4] greater than 200 µM.
In the case of `COc1ccc(N/N=C2\C(=O)N(Cc3cn(C[C@H]4O[C@@H]5OC(C)(C)O[C@@H]5[C@H]5OC(C)(C)O[C@H]54)nn3)c3ccccc32)cc1`, the values for the selectivity ratio in series [1] and in series [3] were 46 and 64.2, respectively. In addition, the IC50 in the series with Plasmodium falciparum [2] came to 1.64 µM; in the series with Plasmodium falciparum [5], 2.29 µM. This compound also registered a CC50 at 72 h in series [4] of 105 µM.
For `CC(=O)C[C@H]1O[C@@H](On2cc(CN3C(=O)/C(=N\Nc4ccc(C#N)cc4)c4ccccc43)nn2)[C@H](OC(C)=O)[C@@H](OC(C)=O)[C@@H]1OC(C)=O`, in that order: 13.2, 22.6, 3.33 µM, 5.72 µM and 75.4 µM.
For `CC(=O)C[C@H]1O[C@@H](On2cc(CN3C(=O)C(=O)c4ccccc43)nn2)[C@H](OC(C)=O)[C@@H](OC(C)=O)[C@@H]1OC(C)=O`, in that order: less than 13.7, 38.6, 3.54 µM, greater than 10 µM and 137 µM.
Regarding `CC1(C)O[C@H]2[C@@H](O1)[C@@H](Cn1cc(CN3C(=O)/C(=N\Nc4ccccc4)c4ccccc43)nn1)O[C@@H]1OC(C)(C)O[C@@H]12`, the selectivity ratio in series [1] turned out to be 40.2; in series [3], 27.2. Besides, the IC50 was 3.87 µM in the series with Plasmodium falciparum [2] and 2.62 µM in the series on Plasmodium falciparum [5]. The compound further displayed a CC50 at 72 h in series [4] of 105 µM.
For `CC(=O)C[C@H]1O[C@@H](On2cc(CN3C(=O)/C(=N\Nc4ccc(Br)cc4)c4ccccc43)nn2)[C@H](OC(C)=O)[C@@H](OC(C)=O)[C@H]1OC(C)=O`, in that order: 28.6, 39.9, 2.09 µM, 2.91 µM and 83.4 µM.
For `CC(=O)C[C@H]1O[C@@H](On2cc(CN3C(=O)/C(=N\Nc4ccc(Br)cc4)c4ccccc43)nn2)[C@H](OC(C)=O)[C@@H](OC(C)=O)[C@@H]1OC(C)=O` the same measures were 30.3, 30.7, 3.79 µM, 3.84 µM and 116 µM.
For `COc1ccc(N/N=C2\C(=O)N(Cc3cn(C[C@H]4O[C@@H]5OC(C)(C)O[C@@H]5[C@H]4O)nn3)c3ccccc32)cc1`, in that order: 22.7, 19.6, 3.8 µM, 3.28 µM and 74.5 µM.
On to `CC1(C)O[C@H]2[C@@H](O1)[C@@H](Cn1cc(CN3C(=O)/C(=N\Nc4cccc(Cl)c4)c4ccccc43)nn1)O[C@@H]1OC(C)(C)O[C@@H]12`, for which the selectivity ratio in series [1] was determined as 47; in series [3], 36.2. Besides, the figures for the IC50 in the series on Plasmodium falciparum [2] and in the series on Plasmodium falciparum [5] were 3.23 µM and 2.49 µM, respectively. Moreover, the 50% cytotoxic concentration (CC50) at 72 h in series [4] came to 117 µM.
With `O=C1/C(=N\Nc2cccc(Cl)c2)c2ccccc2N1Cc1cn(O[C@@H]2O[C@H](CO)[C@@H](O)[C@H](O)[C@H]2O)nn1`, the IC50 in the series with Plasmodium falciparum [2] is 6.73 µM; in the series on Plasmodium falciparum [5], 7.62 µM.
Turning to `CCN(CC)CCCC(C)Nc1ccnc2cc(Cl)ccc12` (configuration not stated) [CHLOROQUINE], in series [4], the CC50 at 72 h is greater than 500 µM.
